# From article PMC8226839, “New Perspectives in the Antimicrobial Activity of the Amphibian Temporin B: Peptide Analogs Are Effective Inhibitors of Candida albicans Growth” (Journal of Fungi, 2021)
# Where two headings read alike, the source gives them in different places. Square brackets hold non-standard residues; d marks the D form. Peptide text beside a SMILES is read from it.
# Tests used:
# [1] = tested on: IL-1α; assay: Release of proinflammatory cytokine IL-1α from Phenion OS-REp model (ELISA); details: culture medium 24 h after 35 min exposure; 50 μg peptide per model (SDS 5% w/v)
# [2] = tested on: sessile C. albicans cells (biofilm); assay: Survival of sessile cells of a 24 h old biofilm (CFU plating); format: cell-based, Candida albicans; details: 10 µg mL^−1, 24 h exposure; untreated growth control 100%
# Procedure: (§1) At the time points 5 min, 6 h and 24 h, aliquots were taken and plated in appropriate dilutions onto PDA plates in duplicates to stimulate the growth of viable cells. The colony-forming units (CFU) were counted after incubation at 30 °C for 24 h. […] To determine the efficacy of the TB peptide analogs on sessile C. albicans cells, biofilm formation was induced by adding 100 μL of C. albicans (1 × 10^6 cells mL^−1) in 0.05 × PDB to each well of a 96-well, flat-bottom microtiter plate (Nunclon Delta, Thermo Fisher Scientific, Waltham, MA, USA) and incubating for 24 h at 30 °C. The formed biofilm was then evaluated microscopically for cell attachment and pseudo-hyphae formation before proceeding with peptide application. The serially diluted TB peptide analogs (in 0.05 × PDB) were added to the biofilm in 100 μL aliquots to reach a final volume of 200 μL per well. For the positive control, 10 µg mL^−1 Amphotericin B (Sigma-Aldrich, St. Louis, MO, USA) was used, while 0.05 × PDB was added to the growth control. After further incubation for 24 h at 30 °C, the biofilm was disrupted by vigorous pipetting, and 20 µL of the detached cells were mixed with 80 µL of 0.05 × PDB. […] The effectiveness of the TB peptide analogs to reduce biofilm formation was calculated by comparing the number of CFU at different peptide concentrations with that of the untreated growth control. […]
# [3] = tested on: Candida albicans; assay: microbe, parasite or virus in culture
# [4] = tested on: C. albicans cells; format: cell-based, Candida albicans
# Procedure: as §1
# [5] = tested on: Candida albicans 27700 (fluconazole-resistant clinical isolate); details: 27700 (fluconazole-resistant clinical isolate, 24 h)
# [6] = in vitro; format: cell-based; details: human, 3D Phenion OS-REp reconstructed epidermis model
# Procedure: The TB peptide analogs were tested for their skin irritation potential in vitro using the three-dimensional (3D) Phenion® open-source reconstructed epidermis model (Henkel, Düsseldorf, Germany) with slight adaptation from Groeber et al. and Mewes et al. [22, 23] and the test guidelines 439 of the Organization for Economic Cooperation and Development (OECD) [24]. In brief, the epidermal tissue models were equilibrated in 6-well plates ([…] , Hamburg, Germany) with 1.5 mL of Phenion® OS_REp air-liquid interface (ALI) medium (Henkel, Düsseldorf, Germany) for 24 h at 37 °C, 5% (v/v) CO2. Then, the medium was replaced by fresh medium and 25 μL Dulbecco's phosphate-buffered saline (D-PBS) containing 50 μg of the peptide, respectively, was dispensed directly on top of the models and spread gently over the surface with sterile glass applicators. […] All samples and controls were prepared in triplicates. After incubation at 25 °C for 35 min, each model was thoroughly dipped six times in 1 L of D-PBS. […] From each tissue sample, 200 μL of the formazan extraction solution were transferred in duplicates to a 96-well microtiter plate and the optical density was measured in a multimode plate reader (FLUOstar Omega, BMG Labtech, Ortenberg, Germany) at a wavelength of 550 nm. The relative metabolic activity was calculated from two replicates per tissue and three tissues per assay.
# [7] = tested on: Candida albicans; details: 24 h
# [8] = tested on: Staphylococcus aureus; details: 24 h
# [9] = tested on: Candida glabrata; details: 24 h
# [10] = tested on: Candida parapsilosis; details: 24 h
# [11] = tested on: C. albicans; assay: Broth microdilution, impact of protease inactivation conditions (growth %); format: cell-based, Candida albicans; details: 0.125 µM protease alone + 100 °C, 15 min
Molecule,IC90 [5] [nM],"viability at 35 min, 2000 µg/mL [6] [%]",IC90 [7] [nM],IC90 [8] [µM],IC90 [9] [nM],IC90 [10] [nM],also measured
"CCCCCCCCCCCCOS(=O)(=O)[O-].[Na+] [5% SDS, sodium dodecyl sulfate]",–,–,–,–,–,–,IL-1α [1]: 199.2 ± 47.7 pg/mL
C[C@@H]1[C@H](O)[C@@H](C)/C=C/C=C/C=C/C=C/C=C/C=C/C=C/[C@H](O[C@@H]2O[C@H](C)[C@@H](O)[C@H](N)[C@@H]2O)C[C@@H]2O[C@](O)(C[C@@H](O)C[C@@H](O)[C@H](O)CC[C@@H](O)C[C@@H](O)CC(=O)O[C@H]1C)C[C@H](O)[C@H]2C(=O)O [Amphotericin B],–,–,–,–,–,–,CFU [%] [2]: 0 ± 0 %; IC90 [3]: 0.055 µg/mL; IC90 ([3]; 24 h): 60 nM
CC[C@H](C)[C@H](NC(=O)[C@@H]1CCCN1C(=O)[C@H](CC(C)C)NC(=O)[C@H](CC(C)C)NC(=O)[C@@H](CCCCN)NC(=O)[C@H](N)CCCCN)C(=O)N[C@H](C(=O)N[C@H](CCCCN)C(=O)N[C@@H](CC(N)=O)C(=O)N[C@@H](CC(C)C)C(=O)N[C@@H](CC(C)C)C(=O)N[C@H](CCCCN)C(=O)N[C@@H](CO)C(=O)N[C@@H](CC(C)C)C(=O)N[C@@H](CC(C)C)C(N)=O)C(C)C [D-Lys_TB_KKG6K] (H-[dK][dK]LLPIV[dK]NLL[dK]SLL-NH2),1800,91.4 ± 2.9,1800,14.4,1800,1800,killing (CFU) ([4]; 24 h): 100%
CC[C@H](C)[C@H](NC(=O)[C@@H]1CCCN1C(=O)[C@H](CC(C)C)NC(=O)[C@H](CC(C)C)NC(=O)[C@H](CCCCN)NC(=O)[C@@H](N)CCCCN)C(=O)N[C@H](C(=O)N[C@@H](CCCCN)C(=O)N[C@@H](CC(N)=O)C(=O)N[C@@H](CC(C)C)C(=O)N[C@@H](CC(C)C)C(=O)N[C@@H](CCCCN)C(=O)N[C@@H](CO)C(=O)N[C@@H](CC(C)C)C(=O)N[C@@H](CC(C)C)C(N)=O)C(C)C [TB_KKG6K] (H-KKLLPIVKNLLKSLL-NH2),1800,94.2 ± 2.9,1800,3.6,1800,1800,killing (CFU) ([4]; 6 h): 100%
CC[C@H](C)[C@H](NC(=O)[C@@H]1CCCN1C(=O)[C@H](CC(C)C)NC(=O)[C@H](CC(C)C)NC(=O)[C@H](CCCCN)NC(=O)[C@H](CCCCN)NC(=O)[C@H](CCCCN)NC(=O)[C@@H](N)CCCCN)C(=O)N[C@H](C(=O)N[C@@H](CC(N)=O)C(=O)N[C@@H](CC(C)C)C(=O)N[C@@H](CC(C)C)C(=O)N[C@@H](CO)C(=O)N[C@@H](CC(C)C)C(=O)N[C@@H](CC(C)C)C(N)=O)C(C)C [TB_KKG6K^scrambled] (H-KKKKLLPIVNLLSLL-NH2; N-terminus assumed),–,–,1800,7.2,–,–,–
Chymotrypsin,–,–,–,–,–,–,Growth [%] [11]: 76.1 ± 6.9%
